In patent publication US10864251B2, “Peptides of syndecan-1 for inhibiting angiogenesis” (Wisconsin Alumni Research Foundation, priority 2006, dated 2020):
Where no end group is shown, it is not given here.

Experiments:
[1] = Active SSTN in blood detected on dot blots; assay type: in vivo; details: mouse
Procedure: Lastly, SSTN was tested in the in vivo corneal angiogenesis assay. Polyhydroxyethylmethylacrylate pellets (0.25 μL) containing 67 ng FGF-2 and sucralfate as a slow release agent were implanted into the avascular mouse cornea. After seven days, fluorescent dextran was injected suborbitally to highlight the vascular system and the mice were sacrificed. […] To supply the inhibitor in a more quantifiable and physiological manner, recombinant mS1ED or SSTN were delivered systemically via Alzet osmotic pumps implanted subcutaneously on the backs of the animals. […] To correlate this with the active concentration in the plasma, the inventors took advantage of rabbit polyclonal antibodies generated against mS1ED, which detect active SSTN on dot blots. […] Using this method to detect active SSTN in the blood collected from animals after 1 week of SSTN treatment, SSTN is shown to be in the blood at 125-150 nM when present at 10 μM in the osmotic pump.

[2] = tested on: syndecan-1 association with the αvβ3 and αvβ5 integrins; assay: Co-immunoprecipitation of β3/β5 integrin with syndecan-1 from HMEC-1 cells; assay type: binding, human; details: HMEC-1, 30 μM GST-mS1ED or 1 μM SSTN
Excerpt: FIGS. 8A-8D—SSTN disrupts association of syndecan-1 with the αvβ3 and αvβ5 integrins. (FIG. 8A) Diagram of mouse syndecan-4 (mS4), human syndecan-1 (hS1) and mouse syndecan-1 (mS1) and mS1 deletion mutants showing which proteoglycans are able to activate the αvβ3 and αvβ5 integrins. (FIG. 8B) Flow cytometry of human aortic endothelial cells (HAEC), human dermal microvascular endothelial cells (HMEC-1) or mouse aortic endothelial cells (MAEC) using human or mouse-specific antibodies for syndecan-1, αvβ3, and αvβ5. The β5 subunit is detected by Western blot in mouse cells and is compared to B82L fibroblasts known to express this integrin; (FIG. 8C) Human syndecan-1 is immunoprecipitated from HMEC-1 cells in the presence or absence of 30 μM GST, 30 μM GST-mS1ED (mouse syndecan-1 ectodomain), or 1 μM SSTN and detected on blots along with co-precipitating β3 or β5 integrin. (FIG. 8D) Human syndecan-1 is immunoprecipitated from MDA-MB-231 human mammary carcinoma cells expressing full-length mouse syndecan-1 (F1-mS1), a mouse mutant bearing deletion of amino acids 67-121 (mS1^Δ67-121), or vector alone (NEO) and blotted for the co-precipitation of the αvβ3 integrin by detection of the β3 subunit. […]

Molecule | level at time molar at 168 h ([1]; blood, sc, after 1 week, 10 μM in the osmotic pump, read-out: concentration in the blood) | clearance rate in the plasma ([1]; suggested from blood level) | co-precipitation of β3 and β5 integrin with human syndecan-1 [2]
SNTETAFTSVLPAGEKPEEGEPVLHVEAEPGFTARDKEKEVTTRPRETV [synstatin82-130] | 125 to 150 nM | 10 to 13 h | 
S1ED: recombinant mouse Sdc1 ectodomain (amino acids 18-251), expressed in bacteria as GST fusion or 6×His-tagged protein (protein, left off: a dimerising Fc or GST, recombinant mouse Sdc1 ectodomain (amino acids 18-251), expressed in bacteria as GST fusion or 6×His-tagged protein) QPALPQIVAVNVPPEDQDGSGDDSDNFSGSGTGALPDTLSRQTPSTWKDVWLLTATPTAPEPTSSNTETAFTSVLPAGEKPEEGEPVLHVEAEPGFTARDKEKEVTTRPRETVQLPITQRASTVRVTTAQAAVTSHPHGGMQPGLHETSAPTAPGQPDHQPPRVEGGGTSVIKEVVEDGTANQLPAGEGSGEQDFTFETSGENTAVAAVEPGLRNQPPVDEGATGASQSLLDRK |  |  | displace the integrins
